# Experimental data as given in patent US8247211B2, “Glycopeptide antibiotics” (American Cyanamid Company, priority 2001, dated 2012).
# Experiments:
# Assay in all cases: In vitro antibacterial evaluation: minimum inhibitory concentration (MIC), broth dilution method
# Format in all cases: cell-based
# Enterococcus sp. = conditions: broth dilution, 5×10^5 CFU/mL, 18 hours at 35° C.
# In short: (§1)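 An MIC is reported for each organism as the least concentration giving inhibition, using broth dilution over 64-0.06 μg/mL with a 5×10^5 CFU/mL inoculum.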
# Escherichia coli = conditions: 5×10^5 CFU/mL, 18 hours at 35° C.
# In short: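 Following NCCLS approved standard M7-A2, compounds are serially diluted from 64 to 0.06 μg/mL in Muller-Hinton II […] and inoculated at 5×10^5 CFU/mL; the MIC is the minimum concentration at which growth is inhibited.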
# Streptococcus sp. = conditions: broth dilution, 5×10^5 CFU/mL, 18 hours at 35° C.
# In short: as §1
# Staphylococcus sp. = conditions: for MIC Staphylococcus aureus (ATCC 29213): strain ATCC 29213; for MIC Staphylococcus aureus (GC 1131): strain GC 1131; for MIC Staphylococcus aureus (GC 3051): strain GC 3051; for MIC Staphylococcus aureus (GC 3053): strain GC 3053; for MIC Staphylococcus aureus (GC 4541): strain GC 4541; for MIC Staphylococcus aureus (GC 4542): strain GC 4542; for MIC Staphylococcus aureus-SMITH (GC 4543): strain GC 4543; for MIC Staphylococcus aureus (GC 4544): strain GC 4544; for MIC Staphylococcus aureus (GC 4545): strain GC 4545; for MIC Staphylococcus haemolyticus (GC 4546): strain GC 4546; for MIC Coagulase Negative Staphylococcus (GC 4547): strain GC 4547; for MIC Coagulase Negative Staphylococcus (GC 4548): strain GC 4548; for MIC Coagulase Negative Staphylococcus (GC 4549): strain GC 4549; for MIC Coagulase Negative Staphylococcus (GC 4551): strain GC 4551; for MIC Coagulase Negative Staphylococcus (GC 6257): strain GC 6257
# In short: as §1
# [1] = broth dilution, 18 hours at 35° C.
compound,measurement,setting,value
CC(c1ccccc1)C1NC(=O)CNC(=O)C(CO)NC(=O)C(C(O)C2CNC(=N)N2C2OC(CO)C(O)C(O)C2O)NC(=O)C(C(O)C2CNC(=N)N2)NC(=O)C(Cc2ccc(OC3OC(CO)C(OC4OC5COC(CC6CCCCC6)OC5C(O)C4O)C(O)C3O)cc2)NC1=O (centres unmarked) [Example 122],MIC Enterococccus avium (GC 4558),Enterococcus sp.,2 mg/L
same,MIC Enterococccus faecalis (ATCC 29212),Enterococcus sp.,2 mg/L
same,MIC Enterococccus faecalis (GC 2691),Enterococcus sp.,2 mg/L
same,MIC Enterococccus faecalis (GC 3059),Enterococcus sp.,2 mg/L
same,MIC Enterococccus faecalis (GC 4552),Enterococcus sp.,2 mg/L
same,MIC Enterococccus faecalis (GC 4553),Enterococcus sp.,4 mg/L
same,MIC Enterococccus faecalis (GC 4554),Enterococcus sp.,2 mg/L
same,MIC Enterococccus faecalis (GC 6189),Enterococcus sp.,2 mg/L
same,MIC Enterococccus faecium (GC 2243),Enterococcus sp.,2 mg/L
same,MIC Enterococccus faecium (GC 4556),Enterococcus sp.,2 mg/L
same,MIC Enterococccus faecium (GC 4557),Enterococcus sp.,4 mg/L
same,MIC Enterococcus faecalis (GC 2242),Enterococcus sp.,2 mg/L
same,MIC Escherichia coli (ATCC 25922),Escherichia coli,32 mg/L
same,MIC Escherichia coli (GC 4559),Escherichia coli,32 mg/L
same,MIC Escherichia coli (GC 4560),Escherichia coli,2 mg/L
same,MIC Streptococcus agalactiae (GC 4564),Streptococcus sp.,0.12 mg/L
same,MIC Streptococcus pneumoniae (GC 1894),Streptococcus sp.,<0.06 mg/L
same,MIC Streptococcus pneumoniae (GC 4565),Streptococcus sp.,0.12 mg/L
same,MIC Streptococcus pneumonine (ATCC 6301),Streptococcus sp.,<0.06 mg/L
same,MIC Streptococcus pyogenes (GC 4563),Streptococcus sp.,<0.06 mg/L
same,MIC Staphylococcus aureus (ATCC 29213),Staphylococcus sp.,2 mg/L
same,MIC Staphylococcus aureus (ATCC 29213),Staphylococcus sp.; [1],2 mg/L
same,MIC Staphylococcus aureus (GC 1131),Staphylococcus sp.,2 mg/L
same,MIC Staphylococcus aureus (GC 1131),Staphylococcus sp.; [1],2 mg/L
same,MIC Staphylococcus aureus (GC 3051),Staphylococcus sp.,2 mg/L
same,MIC Staphylococcus aureus (GC 3051),Staphylococcus sp.; [1],2 mg/L
same,MIC Staphylococcus aureus (GC 3053),Staphylococcus sp.,2 mg/L
same,MIC Staphylococcus aureus (GC 3053),Staphylococcus sp.; [1],2 mg/L
same,MIC Staphylococcus aureus (GC 4541),Staphylococcus sp.,2 mg/L
same,MIC Staphylococcus aureus (GC 4541),Staphylococcus sp.; [1],2 mg/L
same,MIC Staphylococcus aureus (GC 4542),Staphylococcus sp.,2 mg/L
same,MIC Staphylococcus aureus (GC 4542),Staphylococcus sp.; [1],2 mg/L
same,MIC Staphylococcus aureus-SMITH (GC 4543),Staphylococcus sp.; 18 hours at 35° C.,2 mg/L
same,MIC Staphylococcus aureus-SMITH (GC 4543),Staphylococcus sp.; [1],2 mg/L
same,MIC Staphylococcus aureus (GC 4544),Staphylococcus sp.,1 mg/L
same,MIC Staphylococcus aureus (GC 4544),Staphylococcus sp.; [1],1 mg/L
same,MIC Staphylococcus aureus (GC 4545),Staphylococcus sp.,2 mg/L
same,MIC Staphylococcus aureus (GC 4545),Staphylococcus sp.; [1],2 mg/L
same,MIC Staphylococcus haemolyticus (GC 4546),Staphylococcus sp.,2 mg/L
same,MIC Staphylococcus haemolyticus (GC 4546),Staphylococcus sp.; [1],2 mg/L
same,MIC Coagulase Negative Staphylococcus (GC 4547),Staphylococcus sp.,2 mg/L
same,MIC Coagulase Negative Staphylococcus (GC 4547),Staphylococcus sp.; [1],2 mg/L
same,MIC Coagulase Negative Staphylococcus (GC 4548),Staphylococcus sp.,1 mg/L
same,MIC Coagulase Negative Staphylococcus (GC 4548),Staphylococcus sp.; [1],1 mg/L
same,MIC Coagulase Negative Staphylococcus (GC 4549),Staphylococcus sp.,1 mg/L
same,MIC Coagulase Negative Staphylococcus (GC 4549),Staphylococcus sp.; [1],1 mg/L
same,MIC Coagulase Negative Staphylococcus (GC 4551),Staphylococcus sp.,2 mg/L
same,MIC Coagulase Negative Staphylococcus (GC 4551),Staphylococcus sp.; [1],2 mg/L
same,MIC Coagulase Negative Staphylococcus (GC 6257),Staphylococcus sp.,1 mg/L
same,MIC Coagulase Negative Staphylococcus (GC 6257),Staphylococcus sp.; [1],1 mg/L
